Assay results: patent US12570970B2, “Inorganic phosphate as a stabilizer for phytase enzymes” (DANISCO US INC, priority 2018, dated 2026)
Structures can show the parent of a compound that is named as a salt. One block for each molecule: values may come before it.

What was measured:
BP-17 phytase [1] = assay: Phytase melting temperature (Tm) in the presence of excipients, differential scanning fluorimetry (nanoDSF); assay type: physicochemical, Buttiauxella sp.
Experimental: An experiment was performed to determine whether the addition of different excipients during thermal exposure increases the melting temperature of the phytase enzyme in the liquid state. Excipient solutions were prepared at their highest solubility, then titrated from highest to lowest concentrations prior to their addition to the phytase UFC. The enzyme/excipient combinations were then exposed to a temperature profile of 21-95° C., and the melting temperatures were measured via differential scanning fluorimetry. The concentration of phytase in the UFC was measured at 123.9 g/L via HPLC. […] A 20% phytic acid solution was prepared by dissolving 1 gram of phytic acid into 5 mL of 0.1 M acetate buffer pH 5.5. The pH was adjusted from 4.2 to 5.47 using 20% NaOH, and then the solution was filtered using a 0.45 μM syringeless filter. A 25% sodium sulfate anhydrous solution was prepared by dissolving 5 grams into 20 mL of water. The pH was adjusted to 5.6 using sulfuric acid, and then the solution was filtered using a 0.45 μM syringeless filter. A 20% sodium polyphosphate solution was prepared by dissolving 5 grams into 25 mL of water. The pH was adjusted to 5.6 using concentrated phosphoric acid, and then the solution was filtered using a […] syringeless filter. […] The pH was adjusted to 5.6 using 80% citric acid, and then the solution was filtered using a 0.45 μM syringeless filter. A 20% sodium phosphate dibasic solution was prepared by dissolving 2 grams into 10 mL of water. The pH was adjusted to 5.6 using concentrated phosphoric acid, and then the solution was filtered using a 0.45 μM syringeless filter. A volume of 100 μL of an excipient stock solution was added to well A in column 1 of a 96-well plate. A volume of 50 μL of water was added to each well B-H in column 1 of the same 96-well plate. The excipient stock solution was titrated 2-fold down the column of the plate by transferring 50 μL into each subsequent well. A volume of 80 μL of the pH adjusted UFC was added to each of the wells in column 1 of a new 96-well plate. A volume of 20 μL was transferred from each well of the titrated excipient directly into the corresponding well containing the UFC. The 96-well plate containing the enzyme and excipient combinations was mixed on a plate shaker for 5 seconds. Standard capillaries for the nanoDSF were filled by dipping a capillary in each well of the 96-well plate, and then loading onto the Nanotemper instrument. The Nanotemper instrument was programmed to run at 10% excitation power and 21-95° C. with a 1° C./minute ramp. The Nanotemper instrument monitors the shift of intrinsic tryptophan fluorescence of proteins upon unfolding by measuring wavelengths at 330 and 350 nm.

BP-17 phytase [2] = assay: Mechanism of inhibition: phytase activity with titrated substrate and titrated excipient (PNPP assay); assay type: biochemical, Buttiauxella sp.; settings: ambient assay conditions (25° C.)
Experimental: Kinetic analysis was performed to determine the mechanism of stabilization of both the sodium phosphate and sodium citrate with respect to the phytase enzyme by measuring the activity of phytase in the presence of both titrated substrate and titrated excipient concentrations.
The BP-17 phytase UFC was diluted 7,000-fold in 0.1 M acetate buffer pH 5.5.
The substrate stock solution (400 mM) was prepared by dissolving 0.923 grams of 4-nitrophenyl phosphate di (tris) salt into 5 mL of 0.25 M acetate buffer pH 5.5. A volume of 200 μL of the substrate stock solution was added to columns 1 and 7 of a 96-well plate. A volume of 100 μL of 0.25 M acetate Buffer pH 5.5 was added to columns 2-6 and 8-12 of the same 96-well plate. Serial dilutions were performed by transferring 100 μL from column 1 into column 2 of the 96-well plate, and then repeating this dilution pattern across the plate to column 6 so that the following substrate concentrations were made: 400, 200, 100, 50, 25, and 12.5 mM. The same serial dilutions were performed across the second half of the plate from columns 7 to 12.
A 20% (or 1.41 M) sodium phosphate solution was prepared by dissolving 5 grams of sodium phosphate dibasic anhydrous into 25 mL of 0.1 M acetate buffer pH 5.5. […]

BP-17 phytase [3] = assay: Thermal inactivation of BP-17 phytase at 70° C. in the presence of stabilizing salts, residual activity by colorimetric assay; assay type: biochemical, Buttiauxella sp.; settings: for phytase activity state: 70° C.
Experimental: An experiment was performed to determine whether the addition of excipients during thermal stress conditions allows the phytase enzyme to retain its activity. A temperature was selected at which the phytase enzyme is completely inactivated in the absence of excipient after 30-minutes incubation. Excipient solutions were prepared at their highest solubility. then titrated from highest to lowest concentrations prior to their addition to the phytase UFC. The enzyme/excipient combinations were then exposed to a temperature of 70° C., and the residual activity was measured after 2, 5, 10, 20, 30, and 60-minutes incubation via a colorimetric activity assay
A 20% (or 1.41 M) sodium phosphate solution was prepared by dissolving 5 grams of sodium phosphate dibasic anhydrous into 25 mL of water. The pH was adjusted to 5.5 using concentrated phosphoric acid. A 25% (or 0.85 M) sodium citrate solution was prepared by dissolving 5 grams of sodium citrate dihydrate into 20 mL of water. The pH was adjusted to 5.5 using 80% citric acid.
A volume of 80 μL of the 20% sodium phosphate stock solution was added to the first well of 8 different 12-well PCR strips. A volume of 40 μL of −Q water was added to wells 2, 3. 4, 5, and 6 of each PCR strip. The sodium phosphate stock solution was serially diluted 2-fold sequentially from well 1 to well 6. A volume of 80 μL of the 25% sodium citrate stock solution was added to well 7 of each PCR strip. A volume of 40 μL of water was added to wells 8, 9, 10, 11, and 12 of each PCR strip. The sodium citrate stock solution was serially diluted 2-fold sequentially from well 7 to well 11, leaving well 12 to contain water only. The BP-17 phytase UFC was diluted 50-fold in autoclaved water. A volume of 40 μL of the diluted UFC was added to each well of the 8 different 12-well PCR strips containing the diluted excipients.
The temperature cycler was programmed to a temperature of 70° C. One PCR strip was sealed and placed immediately on ice for the time zero measurement. The remaining PCR strips were sealed, placed inside the PCR, incubated for varying increments of time (0.5, 2, 5, 10, 20, 30, and 60 minutes), then removed from the PCR and placed immediately on ice. After each of the PCR strips had been collected on ice, they were placed on a 96-well PCR tube rack and centrifuged for 2 minutes at 3500 rpm.
As some precipitation occurred during thermal inactivation, the PCR strips were subjected to centrifugation and the supernatant was removed and diluted with assay buffer (0.1 M acetate Buffer pH 5.5+0.05% w/v Tween 20) to a final activity of 0.012 FTU/mL in a non-binding (Corning 3641) 96-well plate. A volume of 40 μL was transferred from the enzyme dilution plate into a separate reaction plate (Costar 9017, medium binding). A volume of 40 μL of substrate (150 μM sodium phytate) was then added to each of the wells of the reaction plate. The reaction plate was sealed and incubated for 10 minutes at 25° C. and 900 rpm. A volume of 170 μL of Pi Blue stop/color reagent (POPB-500 by BioAssay Systems US) was then added to each well of the reaction plate to stop the reaction. The plate was sealed and incubated for 30 minutes at 25° C. and 400 rpm for color development, then read in a spectrophotometer at 620 nm.

increase in Tm of phytase (BP-17 phytase [1]; molar ratio of 14:1 sodium phytate to phytase, phytase UFC, liquid state, FIG. 1): approximately 2.7 °C
Compound: O=P(O)(O)O[C@H]1[C@H](OP(=O)(O)O)[C@@H](OP(=O)(O)O)[C@H](OP(=O)(O)O)[C@@H](OP(=O)(O)O)[C@H]1OP(=O)(O)O [sodium phytate, Phytic acid sodium salt hydrate, reference compound]

increase in melting temperature of phytase (BP-17 phytase [1]; molar ratio of 130:1 sodium phosphate to phytase, phytase UFC, liquid state, FIGS. 2 and 3): approximately 5.5 °C | increase in melting temperature compared with citrate (BP-17 phytase [1]; normalized for charge equivalents, FIG. 5): much higher | phytase activity in presence of excipient and substrate (BP-17 phytase [2]; 150 mM sodium phosphate and 100 mM phytic acid substrate, FIG. 8): very little activity | relative residual phytase activity retained (BP-17 phytase [3]; 352 mM sodium phosphate, 60-minutes incubation at 70° C., FIG. 6): approximately 90% | phytase activity retained (BP-17 phytase [3]; half of 352 mM sodium phosphate, 60-minutes incubation at 70° C., FIG. 6): approximately 60% | phytase activity state (BP-17 phytase [3]; sodium phosphate below half of 352 mM, FIG. 6): nearly inactivated
Compound: O=P([O-])([O-])O.[Na+].[Na+] [sodium phosphate, Sodium phosphate, dibasic, anhydrous]
stabilizing effect on Tm compared with other excipients (BP-17 phytase [1]; equivalent molar ratios to the phytase, normalized for anion equivalents, FIG. 4): greater than that of sodium phytate, sodium polyphosphate, and sodium sulfate

Compound: O.O.O=C([O-])CC(O)(CC(=O)[O-])C(=O)[O-].[Na+].[Na+].[Na+] [sodium citrate, Sodium citrate dihydrate, reference compound]
excipient concentration at which phytase activity loss levels out (BP-17 phytase [2]; increasing phytic acid substrate, FIG. 9): ≥ 26 mM | phytase activity retained (BP-17 phytase [3]; 425 mM sodium citrate, 60-minutes incubation at 70° C., FIG. 7): approximately 90% | phytase activity retained (BP-17 phytase [3]; half of 425 mM sodium citrate, 60-minutes incubation at 70° C., FIG. 7): ≤ 50% | phytase activity state (BP-17 phytase [3]; sodium citrate below half of 425 mM, FIG. 7): inactivated
